The results in this text go back to patent US20150126368A1, “METHOD OF PROVIDING PLANT WITH STRESS RESISTANCE” (Nippon Soda Co., Ltd., priority 2012, published 2015).

Holding throughout (assay type): in vivo
Experiment [1] concerns Cucumber nursery plants (breed: Sagamihanjiro). Briefly: Evaluation test for relief effects of low temperature injury on cucumber. The settings on record: spray, 2 days 25° C., then 9 days 10° C. daylight/7° C. dark, vs solvent only. The procedure: N,N-dimethylformamide based solutions were prepared according to the formulations shown in Tables 5 to give chemical solutions for the tests.
Cucumber nursery plants (breed: Sagamihanjiro) grown up to the 1.5 leaf stage in a greenhouse was prepared.
The above chemical solution was sprayed to the stem and leaf parts of the above cucumber nursery plants in a sufficient amount, and then air dried. They were allowed to grow at 25° C. for 2 days under conditions of 16 hours under a daylight condition and 8 hours under a dark condition. Then, they were allowed to grow for 9 days under conditions of 16 hours under a daylight condition at 10° C. and 8 hours under a dark condition at 7° C.
(§1) Disorders were evaluated by 11 levels of disorder indices from 0 (no disorders) to 10 (withering to death).
Low temperature injury relief percentages as compared with a region treated with solvent DMF only (Chemical solution 3) were computed by the following formula.
Low temperature injury relief percentage=((disorder index of region treated with solvent only)−(disorder index of each treated region))/(disorder index of region treated with solvent only)×100

The subject of experiment [2] is Soybean (breed: Enrei). As to the kind of experiment: Evaluation test for relief effects of salt injury on soybean. The settings on record: 0.1% aqueous sodium chloride from 2 days, raw weight 11 days after spray. Here is the method: Soybean (breed: Enrei, 2 reprications) hydroponically grown up to the two leaf stage in a greenhouse was prepared.
(§2) A water dispersible granule of 30% ascorbic acid palmitate and pyraclostrobin adjusted to 40% with N,N-dimethylformamide were diluted with tap water to a predetermined concentration, and the diluted solution was sprayed over the whole nursery plants in a sufficient amount. After air dried, they were cultivated with normal irrigation in a greenhouse. Then, the irrigation conditions were changed to 0.1% aqueous sodium chloride solution in 2 cm depth from 2 days after the spraying, and cultivated up to 11 days after the spray treatment. Then the raw weights of an aerial part and a root part were each measured. From this, injury relief percentages were computed by the following formula.
(§3) Salt injury relief percentage=((raw weight of each treatment region)−(raw weight of untreated region))/(raw weight of untreated region)×100

For experiment [3], the system named is Cucumber (breed: Sagamihanjirohushinari). As to the kind of experiment: Evaluation test for relief effects of salt injury on cucumber. The settings on record: 0.1% aqueous sodium chloride from 2 days, raw weight 11 days after spray. Here is the method:
Cucumber (breed: Sagamihanjirohushinari, 2 reprications) hydroponically grown up to the two leaf stage in a greenhouse was prepared.
as §2, §3

A further experiment has as its system Tomato (breed: Momotaro). As to the kind of experiment: Evaluation test for relief effects of high temperature injury on tomato. The settings on record: sprayed on stem and leaf, 2 days 30° C., then 6 days 40° C. daylight/30° C. dark, vs solvent only. Here is the method: N,N-dimethylformamide based solutions were prepared according to the formulations shown in Table 3 to give chemical solutions for the tests.
Tomato (breed: Momotaro) grown up to the 2.5 leaf stage in a greenhouse was prepared.
The above chemical solution was sprayed to the stem and leaf parts of the above tomato nursery plants in a sufficient amount, and then air dried. They were allowed to grow at 30° C. for 2 days under conditions of 16 hours under a daylight condition and 8 hours under a dark condition. Then, they were allowed to grow for 6 days under conditions of 16 hours under a daylight condition at 40° C. and 8 hours under a dark condition at 30° C.
as §1
High temperature injury relief percentages as compared with a region treated with solvent DMF only (Chemical solution 3) were computed by the following formula.
High temperature injury relief percentage=((disorder index of region treated with solvent only)−(disorder index of each treatment region))/(disorder index of region treated with solvent only)×100

A further experiment deals with Tomato (breed: Reiyo). As to the kind of experiment: Evaluation test for relief effects of low temperature injury on tomato. The conditions noted are these: one night outside at average 0.5° C. Here is the method:
Tomato (breed: Reiyo, 4 reprications) grown up to the 3.5 leaf stage in a greenhouse was prepared.
A water dispersible granule of 30% ascorbyl palmitate and pyraclostrobin dissolved to 40% with N,N-dimethylformamide were diluted with tap water to a concentration described in Table 7, and the diluted solution was sprayed over the whole nursery plants in a sufficient amount. After air dried, they were transferred to the outside of the greenhouse at an average temperature of 0.5° C. during night to investigate a degree of low temperature injury on the next morning.
Disorders were evaluated by 5 levels of disorder indices of 0 (no disorder) to 4 (complete withering). From this, disorder relief percentages were computed by the following formula.
Low temperature injury relief percentage=(disorder index of untreated region)−(disorder index of each treatment region)/(disorder index of untreated region)×100

Experiment [4] concerns Cucumber (breed: Sagamihanjirohushinari). As to the kind of experiment: Evaluation test for relief effects of submergence disorder on cucumber. The conditions noted are these: flood from 2 days, raw weight 11 days after spray. The procedure:
Cucumber (breed: Sagamihanjirohushinari, 2 reprications) grown up to the two leaf stage in a greenhouse was prepared.
A water dispersible granule of 30% ascorbyl palmitate and pyraclostrobin adjusted to 40% with N,N-dimethylformamide were diluted with tap water to a predetermined concentration, and the diluted solution was sprayed in a sufficient amount. They were subjected to flood conditions up to immediately below the cotyledon from 2 days after the spray treatment, and the raw weights of an above ground part and a root part of cucumber were each measured at the elapsed time of 11 days after the spray treatment. From this, injury relief percentages were computed by the following formula.
(§4) Flood injury relief percentage=((raw weight of each treatment region)−(raw weight of untreated region))/(raw weight of untreated region)×100

Experiment [5] concerns Soybean (breed: Enrei). Briefly: Evaluation test for relief effects of acidity problem on soybean. The settings on record: hydroponic medium pH 4 from 2 days, disorder index 11 days after spray. The procedure:
Soybean (breed: Enrei, 2 reprications) hydroponically grown up to the two leaf stage in a 100 ml flask was prepared.
A water dispersible granule of 30% ascorbyl palmitate and pyraclostrobin dissolved to 40% with N,N-dimethylformamide were diluted with tap water to a predetermined concentration, and the diluted solution was sprayed over the whole nursery plants in a sufficient amount. The water culture medium was adjusted to pH 4 with 1 N hydrochloric acid at the elapsed time of 2 days after the spray treatment, and the above soybean was continuously allowed to grow hydroponically. Disorder in the soybean was investigated at the elapsed time of 11 days after the spray treatment.
For disorder, a degree of necrosis was evaluated by 11 levels of disorder indices from 0 (no necrosis) to 10 (withering to death). From this, problem relief percentages were computed by the following formula.
Acidity problem relief percentage=((disorder index of untreated region)−(disorder index of each treated region))/(disorder index of untreated region)×100

Experiment [6] deals with Soybean (breed: Enrei). As to the kind of experiment: Evaluation test for relief effects of flood injury on soybean. The settings on record: flood from 2 days, raw weight 11 days after spray. Here is the method:
Soybean (breed: Enrei, 2 reprications) grown up to the two leaf stage in a greenhouse was prepared.
A water dispersible granule of 30% ascorbyl palmitate and pyraclostrobin adjusted to 40% with N,N-dimethylformamide were diluted with tap water to a predetermined concentration, and the diluted solution was sprayed in a sufficient amount. They were subjected to flood conditions up to immediately below the cotyledon from 2 days after the spray treatment, and the raw weights of an above ground part and a root part of soybean were each measured at the elapsed time of 11 days after the spray treatment. From this, injury relief percentages were computed by the following formula.
as §4

Setting [7] is: ascorbyl palmitate 800 ppm in DMF.
[8] abbreviates: ascorbyl palmitate 1000 ppm spray.

Turning to `COC(=O)N(OC)c1ccccc1COc1ccn(-c2ccc(Cl)cc2)n1` [Pyraclostrobin, reference compound], the “relief percents of low-temperature injury(%)” value in experiment [1] (Pyraclostrobin 40 ppm in DMF) is 19%; in the experiment with Tomato (breed: Reiyo) (Pyraclostrobin 50 ppm spray) it was 25%. Moreover, the “relief percents of salt injury in aerial part(%)” value in the experiment on Soybean (breed: Enrei) [2] (Pyraclostrobin 50 ppm spray) is given as 3.2%; in experiment [3] (Pyraclostrobin 50 ppm spray), 45.6%. The “relief percents of salt injury in root(%)” value is 2.5% with Soybean (breed: Enrei) [2] (Pyraclostrobin 50 ppm spray) and 20.0% in experiment [3] (Pyraclostrobin 50 ppm spray). The “relief percents of high-temperature injury (%)” value in the experiment on Tomato (breed: Momotaro) (Pyraclostrobin 40 ppm in DMF) amounted to 35%. Moreover, the “relief percents of flood injury in aerial part(%)” value in experiment [4] (Pyraclostrobin 50 ppm spray) was 61.7%; in the experiment with Soybean (breed: Enrei) [6] (Pyraclostrobin 50 ppm spray) it was 0.0%. The “relief percents of flood injury in root(%)” value in experiment [4] (Pyraclostrobin 50 ppm spray) turned out to be 39.0%; in the experiment with Soybean (breed: Enrei) [6] (Pyraclostrobin 50 ppm spray), 3.2%. Moreover, the “relief percents of acidity problem(%)” value in the experiment on Soybean (breed: Enrei) [5] (Pyraclostrobin 50 ppm spray) is on record as 12.5%.
Turning to `CCCCCCCCCCCCCCCC(=O)OC[C@H](O)[C@H]1OC(=O)C(O)=C1O` [ascorbyl palmitate], the figures for the “relief percents of low-temperature injury(%)” value (in experiment [1] (setting [7]); in the experiment on Tomato (breed: Reiyo) (ascorbyl palmitate 500 ppm spray)) were 25% and 100%, respectively. Also, the “relief percents of salt injury in aerial part(%)” value with Soybean (breed: Enrei) [2] (setting [8]) worked out at 20.4%; in experiment [3] (setting [8]), 8.8%. Besides, the “relief percents of salt injury in root(%)” value in the experiment on Soybean (breed: Enrei) [2] (setting [8]) came to 22.2%; in experiment [3] (setting [8]), 16.0%. The “relief percents of high-temperature injury (%)” value with Tomato (breed: Momotaro) (setting [7]) worked out at 57%. Also, the “relief percents of flood injury in aerial part(%)” value in experiment [4] (setting [8]) stood at 31.9%; in the experiment on Soybean (breed: Enrei) [6] (setting [8]) it was 2.8%. Besides, the “relief percents of flood injury in root(%)” value amounted to 41.5% in experiment [4] (setting [8]) and 20.4% in the experiment on Soybean (breed: Enrei) [6] (setting [8]). The “relief percents of acidity problem(%)” value with Soybean (breed: Enrei) [5] (setting [8]) was 43.8%.
